{"source": "patent EP4570800A1", "about": "“CRYSTAL FORM OF PYRIDINOPYRIMIDINONE COMPOUND, ACID SALT THEREOF, CRYSTAL FORM OF ACID SALT THEREOF, AND USE” (Wuhan Humanwell Innovative Drug Research and Development …, priority 2022, dated 2024)", "key": {"[1]": {"assay": "Human liver microsome stability test", "type": "in vitro ADME", "details": "human liver microsomes, incubation for 30 min, 37°C", "description": "The human liver microsome stability test was performed by incubating the compound and human liver microsomes in vitro. First, the compound to be tested was prepared into a 10 mM stock solution in DMSO solvent, and then the compound was diluted to 0.5 mM with acetonitrile. Human liver microsomes (Corning) were diluted with PBS into a microsome/buffer solution, and the solution was used to dilute 0.5 mM compound into a working solution, in which the concentration of the compound was 1.5 µM, and the concentration of human liver microsomes was 0.75 mg/mL. A deep-well plate was taken, 30 µL of the working solution was added per well, and then 15 µL of pre-heated 6 mM NADPH solution was added thereto to initiate a reaction, and the reaction was incubated at 37°C. At 0, 5, 15, 30, and 45 min of the incubation, 135 µL of acetonitrile was added to the corresponding wells to terminate the reaction. After the reaction was terminated with acetonitrile at the last time point of 45 min, the deep-well plate was vortexed for 10 min (600 rpm/min), and then centrifuged for 15 min. After centrifugation, the supernatant was collected, and added with purified water in a ratio of 1:1 to perform LC-MS/MS detection. A ratio of a peak area of compound to a peak area of internal standard at each time point was obtained, and the peak area ratios of the compound at 5, 15, 30, and 45 min were compared with the peak area ratio at 0 min to calculate the remaining percentage of the compound at each time point. T1/2 was calculated by using GraphPad 5 software."}, "[2]": {"system": "H358 cells", "assay": "Inhibition of 3D cell proliferation (3D CellTiter-Glo)", "type": "cell-based", "details": "Homo sapiens, NCI-H358, 168 h; 3D cell proliferation in H358 cells, 7 days culture, 3D CellTiter-Glo", "description": "H358 cells were seeded in a T75 culture flask, and cultured in a RPMI 1640 medium containing 10% FBS for 2 days for subsequent experiments in which the cells would be cultured or seeded on a 384-well plate.\nOn day 1, the cells were seeded on the 384-well plate, with 40 µL of medium added per well and serially diluted compounds or DMSO added per well, and an additional well without seeded cells but with medium was set up as a blank control. After culture at 37°C, 5% CO2 for 7 days, the plate was added with 3D CellTiter-Glo reagent (Promega, Cat. No. G9683) on day 8, shaken at 320 rpm for 20 min, and left at room temperature for 2 h. Luminescence signals were read on a multifunctional microplate reader. Cell viability inhibition rate was calculated as: [formula]\n(§1) IC50 values were calculated using Graphpad 5 software."}, "[3]": {"system": "ERK phosphorylation level in DLD-1 cells", "assay": "Inhibition of ERK phosphorylation level in DLD-1 cells (intracellular western blot)", "type": "cell-based", "details": "Homo sapiens", "description": "Intracellular western blot quantitative analysis was used to detect the inhibitory level of compounds on ERK phosphorylation in DLD-1 cells.\nDLD-1 cells (ATCC, CCL-221) were seeded in a T75 culture flask at 2.5 × 10^6 cells/flask, and cultured in a RPMI 1640 medium containing 10% FBS for 2 days. On day 3, the cells were seeded on a 384-well plate, and cultured overnight at 37°C, 5% CO2. After overnight culture, the plate was added with serially diluted compounds (the final content of DMSO was 0.5%), the negative group was added with DMSO, and incubated in a 37°C, 5% CO2 incubator.\nThe cells were fixed, washed once with PBS, treated to disrupt membranes, and blocked at room temperature for 1 h. The blocking solution was removed. The plate was added with primary antibody (CST, Cat. No. #4370S), and incubated overnight at 4°C. The plate was washed 3 times with PBST (PBS solution added with 0.05% Tween-20), and soaked for 2 min each time. The plate was added with secondary antibody (LI-COR, Cat. No. 926-32211), and incubated at room temperature in the dark. The plate was washed 3 times with PBST, and soaked for 2 min each time. The plate was centrifuged at 1000 rpm for 1 min, scanned on a two-color infrared laser imaging system (Odyssey® CLX) to read the signal. Relative signal = 800-channel signal values/700-channel signal values. […]\nas §1"}, "[4]": {"system": "NCI-H1975 non-small cell lung cancer", "assay": "In vivo efficacy test of NCI-H1975 non-small cell lung cancer (combination with osimertinib)", "set-up": "species or system mice", "details": "1 mg/kg, QD", "quoted_text": "NCI-H1975 tumor cells were cultured in an incubator at 37°C and 5% CO2 using medium containing inactivated RPMI 1640 + 10% FBS. After reaching a confluency rate of 80 to 90%, the cells were passaged by subculturing. After one week of adaptive feeding in mice, NCI-H1975 cells in logarithmic phase were inoculated subcutaneously into the right flank of mice at a concentration of 5 × 10^6/100 µL. Tumor growth was regularly monitored until the tumors reached an average volume of 100 to 150 mm^3. […] Tumor size and animal weight were measured and recorded before and during the administration process. The differences in tumor size between the model group and administration group were compared to determine the efficacy."}, "[5]": {"assay": "Influence of vacuum drying conditions on crystal form A (XRPD, HPLC purity)", "type": "physicochemical", "description": "In order to evaluate the influence of the drying conditions on the crystal form A of the compound of formula I, the changes of the sample before and after vacuum drying of the crystal form A of the compound of formula I under the condition of 60°C/80°C for 4 hours were respectively investigated. The XRPD, ^1H NMR, and HPLC purity of the dried sample were tested. […]"}, "[6]": {"assay": "Hygroscopicity by dynamic vapor sorption (DVS)", "type": "physicochemical", "details": "25°C", "description": "The dynamic vapor sorption (DVS) curve was collected on DVS IntrInsic from SMS (surface measurement systems). The relative humidity at 25°C was corrected using the deliquescence points of LiCl, Mg(NO3)2, and KCl.\nStarting from 0%RH or room humidity, the test collected the mass change percentage of the sample as the humidity changed (0%RH to 95%RH) under constant temperature conditions of 25°C."}, "[7]": {"assay": "Dynamic solubility in water, SGF, FaSSIF and FeSSIF", "details": "listed as Crystal form A of compound of formula I; for S: solubility: 37°C, solid feed concentration 10 mg/mL; for pH: pH value of the filtrate", "quoted_text": "100 mg of NaCl and 50 mg of Triton X-100 were weighed into a 50 mL volumetric flask, and purified water was added to complete dissolution. 816 µL of 1 M hydrochloric acid was added thereto, and the pH was adjusted to 1.8 with 1 M hydrochloric acid or 1 M NaOH solution. Purified water was added to make up to volume.\n340 mg of anhydrous NaH2PO4, 42 mg of NaOH, and 620 mg of NaCl were weighed into a 100 mL volumetric flask. Purified water was added to complete dissolution. The pH was adjusted to 6.5 with 1 M hydrochloric acid or 1 M NaOH solution. Purified water was added to make up to volume. 110 mg of SIF powder was then weighed into a 50 mL volumetric flask, added with the above solution to complete dissolution and make up to volume.\nAbout 90 mL of purified water was added to complete dissolution, and the pH was adjusted to 5.0 with 1 M hydrochloric acid or 1 M NaOH solution. Purified water was added to make up to volume. 560 mg of SIF powder was then weighed into a 50 mL volumetric flask, added with the above solution to complete dissolution and make up to volume.\nRotating mixing was carried out at 37°C at a solid feed concentration of 10 mg/mL (calculated as the compound of formula I). […] After sampling at each time point, the samples were centrifuged (10000 rpm) and filtered (0.45 µm PTFE filter head), and the HPLC concentration and pH value of the filtrate were measured."}, "[8]": {"assay": "Solid state stability (XRPD and HPLC)", "type": "physicochemical", "details": "for HPLC results Purity (area%) / Crystal form: listed as Crystal form A of compound of formula I", "description": "The purity test, dynamic solubility test, and stability test in the assay were measured with an Agilent 1260 high-performance liquid chromatograph, and the salt formation molar ratio of ions was tested by ion chromatography, and the analytical conditions are shown in Table 5 and Table 6.\nTable 56 Summary of solid state stability evaluation"}}}
{"smiles": "Cc1nc(N[C@H](C)c2cccc(C(F)(F)F)c2C)c2cn(C3(CF)CC3)c(=O)cc2n1", "note": "[Control compound 1, reference compound]", "values": [{"measurement": "Remaining percentage (%) of compound after incubation for 30 min", "setting": "[1]", "value": 70.2, "unit": "%"}, {"measurement": "IC50", "setting": "[2]", "value": 13, "unit": "nM"}, {"measurement": "IC50", "setting": "[3]", "value": 72, "unit": "nM"}]}
{"smiles": "C=CC(=O)Nc1cc(Nc2nccc(-c3cn(C)c4ccccc34)n2)c(OC)cc1N(C)CCN(C)C", "note": "[Osimertinib]", "values": [{"measurement": "Average tumor weight at the end of the treatment", "setting": "[4]", "value": 3.2, "unit": "g"}]}
{"smiles": "Cc1nc(N[C@H](C)c2cccc(S(F)(F)(F)(F)F)c2)c2cn(C3(CF)CC3)c(=O)cc2n1", "values": [{"measurement": "Area (%) of main peak (relative retention time 1.00) After vacuum drying at 60°C", "setting": "[5]; vacuum drying at 60°C for 4 hours, onset 97.07", "value": 97.11, "unit": "%"}, {"measurement": "change in HPLC purity before and after drying", "setting": "[5]; vacuum drying at 60°C/80°C for 4 hours", "value": "no significant change in purity"}, {"measurement": "crystal form after vacuum drying (XRPD)", "setting": "[5]; vacuum drying at 60°C/80°C for 4 hours, then 19°C/27% RH for 10-15 min", "value": "still the crystal form A of the compound of formula I"}, {"measurement": "Area (%) of main peak (relative retention time 1.00) After vacuum drying at 80°C", "setting": "[5]; vacuum drying at 80°C for 4 hours, onset 97.07", "value": 97.14, "unit": "%"}, {"measurement": "DVS behaviour when higher than 10% RH", "setting": "[6]; higher than 10% RH", "value": "absorb more moisture and gain more weight with the increase of humidity"}, {"measurement": "DVS behaviour when lower than 10% RH", "setting": "[6]; lower than 10% RH", "value": "rapidly dehydrate"}, {"measurement": "S: solubility", "setting": "[7]; FaSSIF, 1 hour, 60 min", "value": 210, "unit": "µg/mL"}, {"measurement": "S: solubility", "setting": "[7]; FaSSIF, 4 hours, 240 min", "value": 80, "unit": "µg/mL"}, {"measurement": "S: solubility", "setting": "[7]; FaSSIF, 24 hours, 1440 min", "value": 50, "unit": "µg/mL"}, {"measurement": "S: solubility", "setting": "[7]; FeSSIF, 1 hour, 60 min", "value": 2720, "unit": "µg/mL"}, {"measurement": "S: solubility", "setting": "[7]; FeSSIF, 4 hours, 240 min", "value": 2880, "unit": "µg/mL"}, {"measurement": "S: solubility", "setting": "[7]; FeSSIF, 24 hours, 1440 min", "value": 2740, "unit": "µg/mL"}, {"measurement": "S: solubility", "setting": "[7]; H2O, 1 hour, 60 min", "value": 140, "unit": "µg/mL"}, {"measurement": "S: solubility", "setting": "[7]; H2O, 4 hours, 240 min", "value": 110, "unit": "µg/mL"}, {"measurement": "S: solubility", "setting": "[7]; H2O, 24 hours, 1440 min", "value": 110, "unit": "µg/mL"}, {"measurement": "S: solubility", "setting": "[7]; SGF, 1 hour, 60 min", "value": 6840, "unit": "µg/mL"}, {"measurement": "S: solubility", "setting": "[7]; SGF, 4 hours, 240 min", "value": 7670, "unit": "µg/mL"}, {"measurement": "S: solubility", "setting": "[7]; SGF, 24 hours, 1440 min", "value": 7760, "unit": "µg/mL"}, {"measurement": "pH", "setting": "[7]; FaSSIF, 1 hour", "value": 6.3}, {"measurement": "pH", "setting": "[7]; FaSSIF, 4 hours", "value": 6.3}, {"measurement": "pH", "setting": "[7]; FaSSIF, 24 hours", "value": 6.4}, {"measurement": "pH", "setting": "[7]; FeSSIF, 1 hour", "value": 5.1}, {"measurement": "pH", "setting": "[7]; FeSSIF, 4 hours", "value": 5.1}, {"measurement": "pH", "setting": "[7]; FeSSIF, 24 hours", "value": 5.1}, {"measurement": "pH", "setting": "[7]; H2O, 1 hour", "value": 5.4}, {"measurement": "pH", "setting": "[7]; H2O, 4 hours", "value": 6.0}, {"measurement": "pH", "setting": "[7]; H2O, 24 hours", "value": 5.8}, {"measurement": "pH", "setting": "[7]; SGF, 1 hour", "value": 3.2}, {"measurement": "pH", "setting": "[7]; SGF, 4 hours", "value": 3.3}, {"measurement": "pH", "setting": "[7]; SGF, 24 hours", "value": 3.2}, {"measurement": "HPLC results Purity (area%)", "setting": "[8]; 25°C/60%RH/open, 1 week", "value": 97.13, "unit": "area%"}, {"measurement": "HPLC results Purity (area%)", "setting": "[8]; 40°C/75%RH/open, 1 week", "value": 97.14, "unit": "area%"}, {"measurement": "HPLC results Purity (area%)", "setting": "[8]; Onset", "value": 97.06, "unit": "area%"}, {"measurement": "Crystal form", "setting": "[8]; XRPD after 25°C/60%RH/open, 1 week", "value": "Crystal form A of compound of formula I"}, {"measurement": "Crystal form", "setting": "[8]; XRPD after 40°C/75%RH/open, 1 week", "value": "Crystal form A of compound of formula I"}, {"measurement": "solid state stability", "setting": "[8]; open, one week at 25°C/60% RH and 40°C/75% RH", "value": "good stability"}]}
